These results are taken from patent US6518257B1, “1-substituted phenyl-1-(1h-imidazol-4-yl) alcohols, process for producing the same and use thereof” (Takeda Chemical Industries, Ltd., priority 1999, dated 2003).

One test deals with T1, Rat Steroid C17,20-lyase (Rattus norvegicus, UniProt P11715).
T1 construct: Testes were excised from 13-week-old male SD rats, homogenized, and centrifuged to give microsomes; from tissue; host or cells: testis microsomes of 13-week-old male SD rats
T1 sequence (P11715 1-507): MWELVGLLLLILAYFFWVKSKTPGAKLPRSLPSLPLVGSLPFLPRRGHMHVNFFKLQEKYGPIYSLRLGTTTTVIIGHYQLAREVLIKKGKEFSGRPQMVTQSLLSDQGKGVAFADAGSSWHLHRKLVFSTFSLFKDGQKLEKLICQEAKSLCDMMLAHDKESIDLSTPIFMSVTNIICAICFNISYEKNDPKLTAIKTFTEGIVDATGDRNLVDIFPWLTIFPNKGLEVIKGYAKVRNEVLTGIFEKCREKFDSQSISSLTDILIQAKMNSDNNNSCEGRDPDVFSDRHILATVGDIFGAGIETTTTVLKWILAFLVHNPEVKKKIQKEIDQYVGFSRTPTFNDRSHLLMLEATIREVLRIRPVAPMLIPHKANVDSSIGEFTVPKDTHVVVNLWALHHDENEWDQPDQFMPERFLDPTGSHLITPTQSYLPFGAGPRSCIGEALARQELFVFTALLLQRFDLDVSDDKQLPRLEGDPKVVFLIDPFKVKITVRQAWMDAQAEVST
In words: Assay of inhibitory activity on rat steroid C17,20-lyase (testis microsomes, [1,2-3H]-17-α-hydroxyprogesterone substrate, TLC). It counts as biochemical. To be noted: rat testis microsomes (7 μg/10 μl), 10 nM [1,2-3H]-17-α-hydroxyprogesterone, NADPH, pH 7.4, 37° C., 7 minutes; products androstenedione and testosterone. The method, then: Assay of Inhibitory Activity on Rat Steroid C17,20-lyase
The activity was determined according to The Prostate, vol. 26, 140-150 (1995).
Testes were excised from 13-week-old male SD rats, homogenized, and centrifuged to give microsomes. [1,2-^3H]-17-α-hydroxyprogesterone having a final concentration of 10 nM, NADPH solution and test compounds were dissolved in 10 μl of 100 mM phosphate buffer (pH 7.4) and microsome protein (7 μg/10 μl) was added. The reaction mixture was incubated at 37° C. for 7 minutes. Ethyl acetate (40 μl) was added and the mixture was centrifuged. The substrate and the products (androstenedione and testosterone) in the supernatant were separated by silica gel thin layer chromatography (TLC). The spots were detected and quantitatively determined by BAS 2000 Bioimage analyzer. The concentration of the test compounds necessary to reduce the amount of the products by 50% (IC50) relative to the amount of the products without test compound (control) as 100% was calculated, and shown in Table 1.
As usually defined, the IC50 is the midpoint of a concentration-inhibition curve. High values mean weaker potency in that assay, low ones greater potency in that assay. With `CC(C)C(O)(c1cccc(-c2ccc(F)cc2)c1)c1c[nH]cn1` (stereo not drawn) [Example 13, 1-(4′-fluoro[1,1′-biphenyl]-3-yl)-1-(1H-imidazol-4-yl)-2-methyl-1-propanol], it took 8.3 nM to reach half-maximal inhibition (IC50). This counts as single-digit nanomolar.
The molecule `CC(C)C(O)(c1ccc(-c2ccc(F)cc2)cc1)c1c[nH]cn1` (stereo not drawn) [Example 4, 1-(4′-fluoro[1,1′-biphenyl]-4-yl)-1-(1H-imidazol-4-yl)-2-methyl-1-propanol] returned an IC50 of 28 nM. This IC50 is about 3.4-fold higher than that of the molecule before.
Same read-out and setting: the same measure for `CCC(O)(c1cccc(-c2ccc(F)cc2)c1)c1c[nH]cn1` (stereo not drawn) [Example 27, 1-[4′-fluoro[1,1′-biphenyl]-3-yl]-1-(1H-imidazol-4-yl)-1-propanol]: 11 nM; for `CC(C)C(O)(c1cccc(-c2ccccc2)c1)c1c[nH]cn1` (stereo not drawn) [Example 6, 1-[1,1′-biphenyl]-3-yl-1-(1H-imidazol-4-yl)-2-methyl-1-propanol]: 15 nM; for `Cc1ccccc1-c1cccc(C(O)(c2c[nH]cn2)C(C)C)c1` (stereo not drawn) [Example 17, 1-(1H-imidazol-4-yl)-2-methyl-1-(2′-methyl[1,1′-biphenyl]-3-yl)-1-propanol]: 12 nM.
With `COc1ccc(-c2cccc(C(O)(c3c[nH]cn3)C(C)C)c2)cc1` (stereo not drawn) [Example 9, 1-(1H-imidazol-4-yl)-1-(4′-methoxy[1,1′-biphenyl]-3-yl)-2-methyl-1-propanol], the IC50 is 10 nM.

Another test deals with Testosterone Synthesis in Rats. The experiment in a line: Assay of inhibitory activity on testosterone synthesis in rats (serum testosterone by radioimmunoassay). In kind it is in vivo, rat. To be noted: 50 mg/kg orally, 9-week-old male SD rats, serum testosterone two hours after administration, as percentage of control group. The method, then:
Assay of Inhibitory Activity on Testosterone Synthesis in Rats
Test compounds (50 mg/kg) were orally administered to 9-week-old male SD (Sprague Dawley) rats. Two hours after administration of the compounds, blood was drawn and testosterone concentration in the obtained serum was measured by radioimmunoassay. The percentage (T/C, %) of the testosterone concentration of test compounds administration group to that of the control group was calculated, and taken as the inhibitory activity on testosterone synthesis.
As to `CC(C)C(O)(c1cccc(-c2ccc(F)cc2)c1)c1c[nH]cn1` (stereo not drawn) [Example 13, 1-(4′-fluoro[1,1′-biphenyl]-3-yl)-1-(1H-imidazol-4-yl)-2-methyl-1-propanol], the “testosterone synthesis inhibitory activity (T/C, %)” value came to 4.7%.
Still for that read-out and setting: the same measure for `CC(C)C(O)(c1cccc(-c2ccccc2)c1)c1c[nH]cn1` (stereo not drawn) [Example 6, 1-[1,1′-biphenyl]-3-yl-1-(1H-imidazol-4-yl)-2-methyl-1-propanol]: 4.3%; for `COc1ccc(-c2cccc(C(O)(c3c[nH]cn3)C(C)C)c2)cc1` (stereo not drawn) [Example 9, 1-(1H-imidazol-4-yl)-1-(4′-methoxy[1,1′-biphenyl]-3-yl)-2-methyl-1-propanol]: 4.6%.
